Measured values taken from patent publication US12723063B2, “GIPR-agonist compounds” (Eli Lilly and Company, priority 2019, dated 2026).
*1 amine or outer side, *2 acyl side, *3 side chain or, on linkers, in order; H or OH if unused. Where a SMILES comes first, the peptide text is derived from it. Side-chain parts run from the residue outwards. [ ]: non-standard residue; d: D form. The star is where a group is joined. C20 diacid = O=C(O)CCCCCCCCCCCCCCCCCCC(=O)*; αMePhe(2-F) = C[C@](N)(Cc1ccccc1F)C(=O)O; γGlu = O=C(O)[C@H](CCC(=O)[*:2])N[*:1]; αMeF = C[C@](N)(Cc1ccccc1)C(=O)O; αMeL = CC(C)C[C@](C)(N)C(=O)O; Orn = NCCC[C@H](N)C(=O)O; AEEA = NCCOCCOCC(=O)O; Aib = CC(C)(N)C(=O)O

How the values were obtained:
Test in all cases: cAMP functional assay (HTRF) in HEK293 cells in presence of 0.1% casein
Format in all cases: cell-based
[1] = biological target: T1, human GLP-1 receptor (GLP-1R) (Homo sapiens, UniProt P43220); details: HEK293 cells expressing human GLP-1R, geometric mean, read-out: hGLP1R cAMP Rel EC50 nM (SEM, n)
T1 construct: expressed in transfected cells; host or cells: HEK293

[2] = biological target: T2, human glucagon receptor (GcgR) (Homo sapiens, UniProt P47871); details: HEK293 cells expressing human GcgR, geometric mean, read-out: hGcgR cAMP Rel EC50 nM (SEM, n)
T2 construct: expressed in transfected cells; host or cells: HEK293

[3] = biological target: T3, human glucose-dependent insulinotropic peptide receptor (GIPR) (Homo sapiens, UniProt P48546); details: HEK293 cells expressing human GIPR, geometric mean, read-out: hGIPR cAMP Rel EC50 nM (SEM, n)
T3 construct: expressed in transfected cells; host or cells: HEK293
T3 sequence (P48546 22-466): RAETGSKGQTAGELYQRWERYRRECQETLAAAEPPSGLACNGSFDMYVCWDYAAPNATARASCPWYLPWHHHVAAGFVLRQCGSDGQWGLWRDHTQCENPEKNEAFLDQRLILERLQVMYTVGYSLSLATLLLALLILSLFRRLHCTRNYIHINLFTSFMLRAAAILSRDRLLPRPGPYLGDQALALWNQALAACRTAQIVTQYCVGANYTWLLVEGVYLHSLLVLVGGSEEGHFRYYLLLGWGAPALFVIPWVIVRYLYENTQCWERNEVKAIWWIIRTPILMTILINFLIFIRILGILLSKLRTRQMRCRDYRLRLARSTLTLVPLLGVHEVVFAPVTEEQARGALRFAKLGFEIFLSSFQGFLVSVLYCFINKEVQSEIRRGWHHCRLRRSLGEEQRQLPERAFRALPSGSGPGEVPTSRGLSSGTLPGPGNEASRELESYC

T1 sequence (P43220 24-463): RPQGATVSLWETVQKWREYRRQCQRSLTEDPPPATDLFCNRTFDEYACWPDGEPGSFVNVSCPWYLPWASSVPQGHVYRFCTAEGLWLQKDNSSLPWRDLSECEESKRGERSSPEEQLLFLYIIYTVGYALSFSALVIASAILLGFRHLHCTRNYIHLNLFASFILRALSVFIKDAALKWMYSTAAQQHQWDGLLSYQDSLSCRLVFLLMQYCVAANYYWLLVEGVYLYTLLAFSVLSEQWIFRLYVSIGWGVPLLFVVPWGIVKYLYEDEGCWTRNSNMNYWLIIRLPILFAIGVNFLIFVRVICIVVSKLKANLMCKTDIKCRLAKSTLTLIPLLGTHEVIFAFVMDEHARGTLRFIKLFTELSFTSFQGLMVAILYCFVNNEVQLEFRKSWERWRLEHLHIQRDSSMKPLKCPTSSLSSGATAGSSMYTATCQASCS
T2 sequence (P47871 26-477): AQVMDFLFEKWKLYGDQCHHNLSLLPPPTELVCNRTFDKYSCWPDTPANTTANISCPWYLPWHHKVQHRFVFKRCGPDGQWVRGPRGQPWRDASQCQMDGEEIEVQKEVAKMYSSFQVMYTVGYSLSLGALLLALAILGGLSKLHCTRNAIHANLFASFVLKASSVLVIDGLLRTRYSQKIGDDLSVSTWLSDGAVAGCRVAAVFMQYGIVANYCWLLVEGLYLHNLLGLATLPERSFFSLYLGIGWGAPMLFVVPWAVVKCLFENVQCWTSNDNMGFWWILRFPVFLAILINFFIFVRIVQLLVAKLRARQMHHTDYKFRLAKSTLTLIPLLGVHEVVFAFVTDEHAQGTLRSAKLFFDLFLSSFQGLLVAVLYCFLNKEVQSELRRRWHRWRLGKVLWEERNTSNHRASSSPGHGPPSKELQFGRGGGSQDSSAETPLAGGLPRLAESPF

Compound | EC50 [1] [nM] | EC50 [2] [nM] | EC50 [3] [nM]
CC[C@H](C)[C@H](NC(=O)[C@H](CCCN)NC(=O)[C@H](CC(=O)O)NC(=O)[C@H](CC(C)C)NC(=O)[C@](C)(CC(C)C)NC(=O)[C@@H](NC(=O)[C@H](CO)NC(=O)[C@H](Cc1ccc(O)cc1)NC(=O)[C@H](CC(=O)O)NC(=O)[C@H](CO)NC(=O)[C@@H](NC(=O)[C@H](Cc1ccccc1)NC(=O)[C@@H](NC(=O)CNC(=O)[C@H](CCC(=O)O)NC(=O)C(C)(C)NC(=O)[C@@H](N)Cc1ccc(O)cc1)[C@@H](C)O)[C@@H](C)CC)[C@@H](C)CC)C(=O)N[C@@H](CCCNC(=N)N)C(=O)N[C@@H](CCC(N)=O)C(=O)NC(C)(C)C(=O)N[C@@H](CC(=O)O)C(=O)N[C@@H](Cc1ccccc1)C(=O)N[C@H](C(=O)N[C@@H](CCC(=O)O)C(=O)N[C@@H](Cc1ccc(O)cc1)C(=O)N[C@@H](CCCCNC(=O)COCCOCCNC(=O)COCCOCCNC(=O)CC[C@H](NC(=O)CCCCCCCCCCCCCCCCCCC(=O)O)C(=O)O)C(=O)N[C@@H](CC(C)C)C(=O)N[C@@H](CCC(=O)O)C(=O)NCC(=O)NCC(=O)N1CCC[C@H]1C(=O)N[C@@H](CO)C(=O)N[C@@H](CO)C(=O)NCC(=O)N[C@@H](C)C(=O)N1CCC[C@H]1C(=O)N1CCC[C@H]1C(=O)N1CCC[C@H]1C(=O)N[C@@H](CO)C(N)=O)C(C)C [Example 116] (H-Y[Aib]EGTFISDYSI[αMeL]LD[Orn]IRQ[Aib]DFVEYK([AEEA-AEEA-γGlu-C20 diacid])LEGGPSSGAPPPS-NH2) | > 5000 | > 5000 | 0.028
CC[C@H](C)[C@H](NC(=O)[C@H](Cc1ccccc1)NC(=O)[C@@H](NC(=O)CNC(=O)[C@H](CCC(=O)O)NC(=O)C(C)(C)NC(=O)[C@@H](N)Cc1ccc(O)cc1)[C@@H](C)O)C(=O)N[C@@H](CO)C(=O)N[C@@H](CC(=O)O)C(=O)N[C@@H](Cc1ccc(O)cc1)C(=O)N[C@@H](CO)C(=O)N[C@H](C(=O)N[C@@](C)(CC(C)C)C(=O)N[C@@H](CC(C)C)C(=O)N[C@@H](CC(=O)O)C(=O)N[C@@H](CCCCN)C(=O)N[C@@H](CCCCNC(=O)COCCOCCNC(=O)COCCOCCNC(=O)CC[C@H](NC(=O)CCCCCCCCCCCCCCCCCCC(=O)O)C(=O)O)C(=O)N[C@@H](Cc1c[nH]cn1)C(=O)N[C@@H](CCC(N)=O)C(=O)NC(C)(C)C(=O)N[C@@H](CC(=O)O)C(=O)N[C@@H](Cc1ccccc1)C(=O)N[C@H](C(=O)N[C@@H](CCC(=O)O)C(=O)N[C@@H](Cc1ccncc1)C(=O)N[C@@H](CC(C)C)C(=O)N[C@@H](CC(C)C)C(=O)N[C@@H](C)C(=O)N[C@@H](C)C(=O)NCC(=O)N1CCC[C@H]1C(=O)N[C@@H](CO)C(=O)N[C@@H](CO)C(=O)NCC(=O)N[C@@H](C)C(=O)N1CCC[C@H]1C(=O)N1CCC[C@H]1C(=O)N1CCC[C@H]1C(=O)N[C@@H](CO)C(N)=O)C(C)C)[C@@H](C)CC [Example 78] | > 5000 | 3000 | 0.0125
CC[C@H](C)[C@H](NC(=O)[C@H](CCCCN)NC(=O)[C@H](CC(=O)O)NC(=O)[C@H](CC(C)C)NC(=O)[C@](C)(CC(C)C)NC(=O)[C@@H](NC(=O)[C@H](CO)NC(=O)[C@H](Cc1ccc(O)cc1)NC(=O)[C@H](CC(=O)O)NC(=O)[C@H](CO)NC(=O)[C@@H](NC(=O)[C@H](Cc1ccccc1)NC(=O)[C@@H](NC(=O)CNC(=O)[C@H](CCC(=O)O)NC(=O)C(C)(C)NC(=O)[C@@H](N)Cc1ccc(O)cc1)[C@@H](C)O)[C@@H](C)CC)[C@@H](C)CC)C(=O)N[C@@H](CCCNC(=N)N)C(=O)N[C@@H](CCC(N)=O)C(=O)NC(C)(C)C(=O)N[C@@H](CC(=O)O)C(=O)N[C@@H](Cc1ccccc1)C(=O)N[C@H](C(=O)N[C@@H](CCC(=O)O)C(=O)N[C@@H](Cc1ccc(O)cc1)C(=O)N[C@@H](CCCCNC(=O)COCCOCCNC(=O)COCCOCCNC(=O)CC[C@H](NC(=O)CCCCCCCCCCCCCCCCCCC(=O)O)C(=O)O)C(=O)N[C@@H](CC(C)C)C(=O)N[C@@H](CCC(=O)O)C(=O)NCC(=O)NCC(=O)N1CCC[C@H]1C(=O)N[C@@H](CO)C(=O)N[C@@H](CO)C(=O)NCC(=O)N[C@@H](C)C(=O)N1CCC[C@H]1C(=O)N1CCC[C@H]1C(=O)N1CCC[C@H]1C(=O)N[C@@H](CO)C(N)=O)C(C)C [Example 115] (H-Y[Aib]EGTFISDYSI[αMeL]LDKIRQ[Aib]DFVEYK([AEEA-AEEA-γGlu-C20 diacid])LEGGPSSGAPPPS-NH2) | > 5000 | > 5000 | 0.0372
CC[C@H](C)[C@H](NC(=O)[C@H](CCCN)NC(=O)[C@H](CC(=O)O)NC(=O)[C@H](CC(C)C)NC(=O)[C@](C)(CC(C)C)NC(=O)[C@@H](NC(=O)[C@H](CO)NC(=O)[C@H](Cc1ccc(O)cc1)NC(=O)[C@H](CC(=O)O)NC(=O)[C@H](CO)NC(=O)[C@@H](NC(=O)[C@H](Cc1ccccc1)NC(=O)[C@@H](NC(=O)CNC(=O)[C@H](CCC(=O)O)NC(=O)C(C)(C)NC(=O)[C@@H](N)Cc1ccc(O)cc1)[C@@H](C)O)[C@@H](C)CC)[C@@H](C)CC)C(=O)N[C@@H](Cc1c[nH]cn1)C(=O)N[C@@H](CCC(N)=O)C(=O)NC(C)(C)C(=O)N[C@@H](CCC(=O)O)C(=O)N[C@@H](Cc1ccccc1)C(=O)N[C@H](C(=O)N[C@@H](CCC(=O)O)C(=O)N[C@@H](Cc1ccc(O)cc1)C(=O)N[C@@H](CCCCNC(=O)COCCOCCNC(=O)COCCOCCNC(=O)CC[C@H](NC(=O)CCCCCCCCCCCCCCCCCCC(=O)O)C(=O)O)C(=O)N[C@@H](CC(C)C)C(=O)N[C@@H](CCC(=O)O)C(=O)NCC(=O)NCC(=O)N1CCC[C@H]1C(=O)N[C@@H](CO)C(=O)N[C@@H](CO)C(=O)NCC(=O)N[C@@H](C)C(=O)N1CCC[C@H]1C(=O)N1CCC[C@H]1C(=O)N1CCC[C@H]1C(=O)N[C@@H](CO)C(N)=O)C(C)C [Example 107] (H-Y[Aib]EGTFISDYSI[αMeL]LD[Orn]IHQ[Aib]EFVEYK([AEEA-AEEA-γGlu-C20 diacid])LEGGPSSGAPPPS-NH2) | > 5000 | > 5000 | 0.0199
CC[C@H](C)[C@H](NC(=O)[C@H](CO)NC(=O)[C@H](Cc1ccc(O)cc1)NC(=O)[C@H](CC(=O)O)NC(=O)[C@H](CO)NC(=O)[C@@H](NC(=O)[C@](C)(Cc1ccccc1)NC(=O)[C@@H](NC(=O)CNC(=O)[C@H](CCC(=O)O)NC(=O)C(C)(C)NC(=O)[C@@H](N)Cc1ccc(O)cc1)[C@@H](C)O)[C@@H](C)CC)C(=O)N[C@@H](C)C(=O)N[C@@H](CC(C)C)C(=O)N[C@@H](CC(=O)O)C(=O)N[C@@H](CCCCN)C(=O)N[C@@H](CCCCNC(=O)COCCOCCNC(=O)COCCOCCNC(=O)CC[C@H](NC(=O)CCCCCCCCCCCCCCCCCCC(=O)O)C(=O)O)C(=O)N[C@@H](Cc1c[nH]cn1)C(=O)N[C@@H](CCC(N)=O)C(=O)NC(C)(C)C(=O)N[C@@H](CCC(=O)O)C(=O)N[C@@H](Cc1ccccc1)C(=O)N[C@H](C(=O)N[C@@H](CC(N)=O)C(=O)N[C@@H](Cc1c[nH]c2ccccc12)C(=O)N[C@@H](CC(C)C)C(=O)N[C@@H](CC(C)C)C(=O)N[C@@H](C)C(=O)NCC(=O)NCC(=O)N1CCC[C@H]1C(=O)N[C@@H](CO)C(=O)N[C@@H](CO)C(=O)NCC(=O)N[C@@H](C)C(=O)N1CCC[C@H]1C(=O)N1CCC[C@H]1C(=O)N1CCC[C@H]1C(=O)N[C@@H](CO)C(N)=O)C(C)C [Example 25] (H-Y[Aib]EGT[αMeF]ISDYSIALDKK([AEEA-AEEA-γGlu-C20 diacid])HQ[Aib]EFVNWLLAGGPSSGAPPPS-NH2) | 8.39 | > 5000 | 0.0155
CC[C@H](C)[C@H](NC(=O)[C@H](CO)NC(=O)[C@H](Cc1ccc(O)cc1)NC(=O)[C@H](CC(=O)O)NC(=O)[C@H](CO)NC(=O)[C@@H](NC(=O)[C@](C)(Cc1ccccc1F)NC(=O)[C@@H](NC(=O)CNC(=O)[C@H](CCC(=O)O)NC(=O)C(C)(C)NC(=O)[C@@H](N)Cc1ccc(O)cc1)[C@@H](C)O)[C@@H](C)CC)C(=O)N[C@@H](C)C(=O)N[C@@H](CC(C)C)C(=O)N[C@@H](CC(=O)O)C(=O)N[C@@H](CCCCN)C(=O)N[C@H](C(=O)N[C@@H](Cc1c[nH]cn1)C(=O)N[C@@H](CCC(N)=O)C(=O)NC(C)(C)C(=O)N[C@@H](CC(=O)O)C(=O)N[C@@H](Cc1ccccc1)C(=O)N[C@H](C(=O)N[C@@H](CCC(=O)O)C(=O)N[C@@H](Cc1ccc(O)cc1)C(=O)N[C@@H](CCCCNC(=O)COCCOCCNC(=O)COCCOCCNC(=O)CC[C@H](NC(=O)CCCCCCCCCCCCCCCCCCC(=O)O)C(=O)O)C(=O)N[C@@H](CC(C)C)C(=O)N[C@@H](CCC(=O)O)C(=O)NCC(=O)NCC(=O)N1CCC[C@H]1C(=O)N[C@@H](CO)C(=O)N[C@@H](CO)C(=O)NCC(=O)N[C@@H](C)C(=O)N1CCC[C@H]1C(=O)N1CCC[C@H]1C(=O)N1CCC[C@H]1C(=O)N[C@@H](CO)C(N)=O)C(C)C)[C@@H](C)CC [Example 99] (H-Y[Aib]EGT[αMePhe(2-F)]ISDYSIALDKIHQ[Aib]DFVEYK([AEEA-AEEA-γGlu-C20 diacid])LEGGPSSGAPPPS-NH2) | > 5000 | > 5000 | 0.00454
